Drawing on patent US20120230951A1 (priority 2011, published 2012), this text covers IC50 for 12 compounds.

The IC50 is the concentration at which inhibition is half-maximal.

Molecules are shown by their SMILES. Counter-ions that a name gives are not always drawn.

The experiment relates to GT-1a pRLuc H771b 75 S/I subgenomic replicon cell line. Put plainly: HCV GT-1a replicon luciferase reporter assay. In kind it is cell-based. The conditions noted are these: Hepatitis C virus, GT1A, 72 h, read-out: GT-1a (IC50) (nM). The text has this:
Determination of compounds HCV GT1b inhibitory replicon activity using the replicon luciferase reporter assay
The 2209-23 cell line was developed at Roche by stable transfection of the hepatoma cell line Huh-7 with a GT-1b Con1 subgenomic bicistronic replicon as previously described. Subgenomic replicon cell line was established in cured Huh7 cells, obtained from R. Bartenschlager (J. Virol. 2003 March; 77 (5):3007-19) The GT-1a H77 subgenomic replicon vector pRLuc H771b 75 S/I, was created by replacing the non structural region of the GT-1b Con1 subgenomic replicon by the one of the H77 strain, except for the first 75 amino acids of the NS3 protein that are from GT-1b Con1 strain. (J. Virol. 2001 77:5352-59) The GT-1a pRLuc H771b 75 S/I subgenomic replicon cell line was established in cured Huh7 cells, obtained from R. Bartenschlager. (J. Virol. 2003 March; 77 (5):3007-19)
All the subgenomic replicon cell lines were cultured in Dulbecco's Modified Eagle Medium (DMEM-Glutamax™-I; Invitrogen Cat #10569-010). The medium was supplemented with 10% Fetal Bovine Serum (Invitrogen Cat #10082-147), 1% penicillin/streptomycin (Mediatech Cat #30-002-CI) and 500 μg/ml of G418 (Mediatech Cat #30-234-CI). Cells were maintained at 37° C. in a humidified 5% CO2 atmosphere.
2209-23 cells were plated at a cell density of 5000 cells per well in 96 well plates (Becton Dickinson, Cat #35 3296). Cells were plated in 90 μl of Dulbecco's Modified Eagle Medium (DMEM-Glutamax™-I), (Invitrogen Cat #10569-010) medium was supplemented with 5% Fetal Bovine Serum (Invitrogen Cat #10082-147), 1% penicillin/streptomycin (Mediatech Cat #30-002-CI). The pRluc H771b 75 S/I cells were plated in 96-well plate at 3000 cells/well in DMEM-Glutamax™-I containing 5% FBS and 1% penicillin/streptomycin in 90 μl final volume. Cells were allowed to equilibrate for 24 hours at 37° C. and 5% CO2 at which time compounds were added. Compounds (or medium as a control) were added 24 hours post-plating in 3 fold dilutions at a final DMSO concentration of 1% in 10 ul volume. Renilla luciferase reporter signal was read 72 hours after addition of compounds using the Renilla Luciferase Assay System (Promega, cat #E2820). EC50 values were defined as the compound concentration at which a 50% reduction in the levels of renilla luciferase reporter was observed as compared to control samples in the absence of compound and was determined by non-linear fitting of compound dose-response data. The EC50 was approximated if maximum percentage inhibition was less than 90% and more than 70%.

In the case of `COC(=O)N[C@H]1CCc2cccc3c2N(C1=O)[C@H](c1nc2ccc(-c4ccc(-c5ccc(-c6cnc([C@@H]7CCCN7C(=O)[C@@H](NC(=O)OC)C(C)C)[nH]6)cc5)nc4)cc2[nH]1)C3` [Compound I-12, ((2S,5S)-2-{6-[6-(4-{2-[(S)-1-((S)-2-Methoxycarbonylamino-3-methyl-butyryl)-pyrrolidin-2-yl]-3H-imidazol-4-yl}-phenyl)-pyridin-3-yl]-1H-benzoimidazol-2-yl}-4-oxo-1,2,4,5,6,7-hexahydro-azepino[3,2,1-hi]indol-5-yl)-carbamic acid methyl ester], the IC50 was found to be 18.6 nM.
In the case of `COC(=O)N[C@H]1CCc2cccc3c2N(C1=O)[C@H](c1ncc(-c2ccc(-c4ccc(-c5cnc([C@@H]6C[C@@H](C#N)CN6C(=O)[C@@H](NC(=O)OC)C(C)C)[nH]5)cc4)cc2)[nH]1)C3` [Compound I-39, {(2S,5S)-2-[5-(4′-{2-[(2S,4R)-4-Cyano-1-((S)-2-methoxycarbonylamino-3-methyl-butyryl)-pyrrolidin-2-yl]-3H-imidazol-4-yl}-biphenyl-4-yl)-1H-imidazol-2-yl]-4-oxo-1,2,4,5,6,7-hexahydro-azepino[3,2,1-hi]indol-5-yl}-carbamic acid methyl ester], the IC50 worked out at 5.34 nM.
With `COC(=O)N[C@H]1CCc2cccc3c2N(C1=O)[C@H](c1ncc(-c2cnc(-c4ccc(-c5cnc([C@@H]6CC(F)(F)CN6C(=O)[C@@H](NC(=O)OC)C(C)C)[nH]5)cc4)nc2)[nH]1)C3` [Compound I-16, ((2S,5S)-2-{5-[2-(4-{2-[(S)-1-((S)-2-Methoxycarbonylamino-3-methyl-butyryl)-4,4-difluoro-pyrrolidin-2-yl]-3H-imidazol-4-yl}-phenyl)-pyrimidin-5-yl]-1H-imidazol-2-yl}-4-oxo-1,2,4,5,6,7-hexahydro-azepino[3,2,1-hi]indol-5-yl)-carbamic acid methyl ester], the IC50 worked out at 29.2 nM.
Then `COC(=O)N[C@H]1CCc2cccc3c2N(C1=O)[C@H](c1ncc(-c2ccc(-c4ccc(-c5[nH]c([C@@H]6CC(F)(F)CN6C(=O)[C@@H](NC(=O)OC)C(C)C)nc5Cl)cc4)cc2)[nH]1)C3` [Compound I-32, {(2S,5S)-2-[5-(4′-{5-Chloro-2-[(S)-4,4-difluoro-1-((S)-2-methoxycarbonylamino-3-methyl-butyryl)-pyrrolidin-2-yl]-3H-imidazol-4yl}-biphenyl-4-yl)-1H-imidazol-2-yl]-4-oxo-1,2,4,5,6,7-hexahydro-azepino[3,2,1-hi]indol-5-yl}-carbamic acid methyl ester], with 5.78 nM; and `COC(=O)N[C@H]1CCc2cccc3c2N(C1=O)[C@H](c1ncc(-c2ccc(-c4ncc(-c5cnc([C@@H]6CC(F)(F)CN6C(=O)[C@@H](NC(=O)OC)C(C)C)[nH]5)cn4)cc2)[nH]1)C3` [Compound I-57, ((2S,5S)-2-{4-[4-(5-{2-[(S)-4,4-Difluoro-1-(2-methoxycarbonylamino-3-methyl-butyryl)-pyrrolidin-2-yl]-3H-imidazol-4-yl}-pyrimidin-2-yl)-phenyl]-1H-imidazol-2-yl}-4-oxo-1,2,4,5,6,7-hexahydro-azepino[3,2,1-hi]indol-5-yl)-carbamic acid methyl ester], with 17.1 nM; and `COC(=O)N[C@H]1CCc2cccc3c2N(C1=O)[C@H](c1ncc(-c2ccc(-c4ccc(-c5cnc([C@@H]6C[C@H](O)CN6C(=O)[C@@H](NC(=O)OC)C(C)C)[nH]5)cc4)cc2)[nH]1)C3` [Compound I-33, {(2S,5S)-2-[5-(4′-{2-[(2S,4S)-4-Hydroxy-1-((S)-2-methoxycarbonylamino-3-methyl-butyryl)-pyrrolidin-2-yl]-3H-imidazol-4-yl}-biphenyl-4-yl)-1H-imidazol-2-yl]-4-oxo-1,2,4,5,6,7-hexahydro-azepino[3,2,1-hi]indol-5-yl}-carbamic acid methyl ester], with 46.1 nM.
In the case of `COC(=O)N[C@H]1CCc2cccc3c2N(C1=O)[C@H](c1ncc(-c2ccc(-c4ccc5cc(-c6cnc([C@@H]7CCCN7C(=O)[C@@H](NC(=O)OC)C(C)C)[nH]6)ccc5n4)cc2)[nH]1)C3` [Compound I-21, ((2S,5S)-2-{4-[4-(6-{2-[(S)-1-((S)-2-Methoxycarbonylamino-3-methyl-butyryl)-pyrrolidin-2-yl]-1H-imidazol-4-yl}-quinolin-2-yl)-phenyl]-1H-imidazol-2-yl}-4-oxo-1,2,4,5,6,7-hexahydro-azepino[3,2,1-hi]indol-5-yl)-carbamic acid methyl ester trifluroacetic acid, trifluoroacetic acid salt], the IC50 came out at 0.395 nM.
In the case of `COC(=O)N[C@H]1CCc2cccc3c2N(C1=O)[C@H](c1ncc(-c2ccc(-c4ccc(-c5cnc([C@@H]6C[C@@H](F)CN6C(=O)[C@@H](NC(=O)OC)C(C)C)[nH]5)cc4)cc2)[nH]1)C3` [Compound I-2, {(2S,5S)-2-[5-(4′-{2-[(2S,4R)-4-Fluoro-1-((S)-2-methoxycarbonylamino-3-methyl-butyryl)-pyrrolidin-2-yl]-3H-imidazol-4-yl}-biphenyl-4-yl)-1H-imidazol-2-yl]-4-oxo-1,2,4,5,6,7-hexahydro-azepino[3,2,1-hi]indol-5-yl}-carbamic acid methyl ester] it was 18.5 nM.
Take `COC(=O)N[C@H]1CCc2cccc3c2N(C1=O)[C@H](c1ncc(-c2ccc(-c4ccc(-c5cnc([C@@H]6CCCN6C(=O)C6(NC(=O)OC)COC6)[nH]5)cc4)cc2)[nH]1)C3` [Compound I-47]: the IC50 amounted to 110 nM.
Then `COC(=O)N[C@@H](C)C(=O)N1CCC[C@H]1c1ncc(-c2ccc(-c3ccc(-c4cnc([C@@H]5Cc6cccc7c6N5C(=O)[C@@H](NC(=O)OC)CC7)[nH]4)cc3)cc2)[nH]1` [Compound I-49, {(2S,5S)-2-[5-(4-{2-[(S)-1-((S)-2-Methoxycarbonylamino-propionyl)-pyrolidin-2-yl]-3H-imidazol-4-yl}-biphenyl-4-yl)-1H-imidazol-2-yl]-4-oxo-1,2,4,5,6,7-hexahydro-azepino[3,2,1-hi]indol-5-yl}-carbamic acid methyl ester], with 3.91 nM; and `COC(=O)N[C@H]1CCc2cccc3c2N(C1=O)[C@H](c1ncc(-c2ccc(-c4ccc5nc([C@@H]6CCCN6C(=O)[C@@H](NC(=O)OC)C(C)C)[nH]c5c4)cc2)[nH]1)C3` [Compound I-3, {(2S,5S)-2-[5-(4-{2-[(S)-1-((S)-2-Methoxycarbonylamino-3-methyl-butyryl)-pyrrolidin-2-yl]-3H-benzoimidazol-5-yl}-phenyl)-1H-imidazol-2-yl]-4-oxo-1,2,4,5,6,7-hexahydro-azepino[3,2,1-hi]indol-5-yl}-carbamic acid methyl ester], with 660 nM.
Then `COC(=O)N[C@H]1CCc2cccc3c2N(C1=O)[C@H](c1ncc(-c2cnc4cc(-c5ccc(-c6[nH]c([C@@H]7CCCN7C(=O)[C@@H](NC(=O)OC)C(C)C)nc6Cl)cc5)ccc4c2)[nH]1)C3` [Compound I-20, ((2S,5S)-2-{5-[7-(4-{5-Chloro-2-[(S)-1-((S)-2-methoxycarbonylamino-3-methyl-butyryl)-pyrrolidin-2-yl]-3H-imidazol-4-yl}-phenyl)-quinolin-3-yl]-1H-imidazol-2-yl}-4-oxo-1,2,4,5,6,7-hexahydro-azepino[3,2,1-hi]indol-5-yl)-carbamic acid methyl ester trifluroacetic acid, trifluoroacetic acid salt], with 12 nM.
